Measured values: patent US20050276765A1, “Preventing skin damage” (priority 2004, published 2005)

Legend:
mice ears = test: Mouse ear thickness after a single UVB irradiation and topical application for five days
Procedure: Prior to the experiment, the thickness of mice ears (FVB strain, female, 7 weeks of age, n=3-4/group) was measured with a thickness gauge (Mitsutoyo Corp.). […] The following day, ear thickness of both ears was measured. This procedure was continued for five consecutive days.
In a second experiment, solution was applied to each ear after exposure to UVB irradiation. The following day, the thickness of both ears was measured. UVB irradiation was only applied once and solutions were administered a total of five times (once a day/consecutive five days).

back skin of mice = test: Primary irritation score on clipped back skin of mice; format: in vivo, mice (FVB strain); conditions: for irritation category (0-4): 5 μl topical daily
Procedure: A third primary irritation experiment was performed. Back skin of mice (FVB strain, female, 7 weeks of age, n=3-4/group) was clipped of hair with an electric clipper and 5 μl of each solution was topically applied. The following day, irritation was evaluated according to five categories (0: no irritation, 1; slight irritation, 2:clear irritation, 3:strong irritation, 4:severe irritation) and 5 μl of each solution was topically applied. This procedure was continued for a total of five consecutive days.

hairless Skh-1 mice = test: UVB-induced chronic skin damage: skin wrinkling score after 10 weeks; format: in vivo, mice (hairless Skh-1)
Procedure: Mice of groups 1 and 3 were exposed to UVB irradiation, using fluorescent lamps (Southern New England Ultraviolet). The height of the lamps was adjusted to deliver 0.35 mW/cm^2 at the dorsal skin surface of the mice. Samples were applied (100 μl) on the back of UVB irradiated and non-UVB irradiated mice. This procedure was repeated three times weekly for 10 weeks. […] The total cumulative dose of UVB was 6.54 J/cm^2.
After 10 weeks, skin wrinkling was evaluated by two independent persons according to five categories (0: no wrinkle; 1: slight wrinkle, 2: clear wrinkle, 3: strong wrinkle; 4: severe wrinkle).

In the case of `Cn1c(=O)c2c(ncn2C)n(C)c1=O` [caffeine], the “ear thickness compared to solvents (DMSO or acetone)” value (mice ears; 2% in DMSO or 1.2% in acetone, with or without UVB) is reported as “did not increase ear thickness”, the “primary irritancy (ear)” value (mice ears; concentration of 2% in DMSO or 1.2% in acetone) is reported as “did not have primary irritancy” and the “irritation category (0-4)” value (back skin of mice; 0.5% caffeine in DMSO, day 0) is reported as 0. The “irritation category (0-4)” value (back skin of mice; 0.5% caffeine in DMSO, day 1) was 0, the “irritation category (0-4)” value (back skin of mice; 0.5% caffeine in DMSO, day 2) was 0 and the “irritation category (0-4)” value (back skin of mice; 0.5% caffeine in DMSO, day 3) was 0. The “irritation category (0-4)” value (back skin of mice; 0.5% caffeine in DMSO, day 4) was 0, the “irritation category (0-4)” value (back skin of mice; 0.5% caffeine in DMSO, day 5) was 0 and the “irritation category (0-4)” value (back skin of mice; 0.5% caffeine in acetone, day 0) was 0. The “irritation category (0-4)” value (back skin of mice; 0.5% caffeine in acetone, day 1) was 0, the “irritation category (0-4)” value (back skin of mice; 0.5% caffeine in acetone, day 2) was 0 and the “irritation category (0-4)” value (back skin of mice; 0.5% caffeine in acetone, day 3) was 0. For the same molecule, the “irritation category (0-4)” value (back skin of mice; 0.5% caffeine in acetone, day 4) was 0, the “irritation category (0-4)” value (back skin of mice; 0.5% caffeine in acetone, day 5) was 0 and the “irritation category (0-4)” value (back skin of mice; 1.2% caffeine in acetone, day 0) was 0. The “irritation category (0-4)” value (back skin of mice; 1.2% caffeine in acetone, day 1) was 0, the “irritation category (0-4)” value (back skin of mice; 1.2% caffeine in acetone, day 2) was 0 and the “irritation category (0-4)” value (back skin of mice; 1.2% caffeine in acetone, day 3) was 0. The “irritation category (0-4)” value (back skin of mice; 1.2% caffeine in acetone, day 4) was 0, the “irritation category (0-4)” value (back skin of mice; 1.2% caffeine in acetone, day 5) was 0 and the “irritation category (0-4)” value (back skin of mice; 2% caffeine in DMSO, day 0) was 0. The “irritation category (0-4)” value (back skin of mice; 2% caffeine in DMSO, day 1) was 0, the “irritation category (0-4)” value (back skin of mice; 2% caffeine in DMSO, day 2) was 0 and the “irritation category (0-4)” value (back skin of mice; 2% caffeine in DMSO, day 3) was 0. The “irritation category (0-4)” value (back skin of mice; 2% caffeine in DMSO, day 4) was 0, the “irritation category (0-4)” value (back skin of mice; 2% caffeine in DMSO, day 5) was 0 and the “irritation in mouse skin” value (back skin of mice; back skin, five consecutive days) was “did not cause irritation”. For the same molecule, the “primary irritancy (back skin)” value (back skin of mice; concentration of 2% in DMSO and 1.2% in acetone) was “did not have primary irritancy”, the UVB-induced wrinkle formation (hairless Skh-1 mice; 1.2% in acetone, topical, 10 weeks) was “effective at reducing UVB-induced wrinkle formation” and the “skin wrinkling score, average” value (hairless Skh-1 mice; group 2: No UVB + 1.2% caffeine in acetone, 100 μl on back three times weekly, after 10 weeks, scale 0 no wrinkle to 4 severe wrinkle) was 0.
